In patent publication EP3315495A1, “N,N' -[…], N,N' -DIAR[…] N,N' -DIARY[…] FOR USE IN TREATMENT AND PREVENTION OF INFLAMMATORY DISEASE” (Universität Innsbruck, priority 2016, dated 2018):
Read-outs that look alike come from different tables or passages of the source. Marks after values point to notes of the source that are not given here.

How the values were obtained:
[1] = system: 5-LOX product formation in PMNL; assay: 5-LOX product formation in PMNL stimulated with A23187 (cell-based); design: species or system human; conditions: Homo sapiens, PMNL
Protocol: Briefly, first a cell-based assay allows to determine the inhibition of the 5-LOX product biosynthesis. The cell suspension contained human neutrophils (PMNL) or monocytes, wherein the cells were isolated from buffy coats obtained from healthy donors pooled by gender. An aliquot cell suspension was incubated with the candidate compound for 15 min at 37 °C. The cells are treated with calcium ionophore A23187 to stimulate 5-LOX product formation for further 10 min (37 °C), optionally in presence of various concentrations of AA. The reaction was stopped with 1 mL methanol on ice.
In both assays, product quantification was conducted with RP-HPLC and UV detection after solid phase extraction and addition of 200 ng prostaglandin B1 as internal standard.

12-LOX = assay type: cell-based; conditions: neutrophils, exogenous AA 10, 30 or 60 µM
Source text: (§1) […]. […] This could be beneficial as the 15-LOX product 15-HETE is anti-inflammatory.

15-LOX = assay type: cell-based; conditions: neutrophils
Source text: as §1

COX-1 = COX-1 (Homo sapiens, UniProt P23219); assay: COX-1 activity; assay type: biochemical; conditions: concentrations up to 10 µM
Chain of COX-1 (P23219 24-599): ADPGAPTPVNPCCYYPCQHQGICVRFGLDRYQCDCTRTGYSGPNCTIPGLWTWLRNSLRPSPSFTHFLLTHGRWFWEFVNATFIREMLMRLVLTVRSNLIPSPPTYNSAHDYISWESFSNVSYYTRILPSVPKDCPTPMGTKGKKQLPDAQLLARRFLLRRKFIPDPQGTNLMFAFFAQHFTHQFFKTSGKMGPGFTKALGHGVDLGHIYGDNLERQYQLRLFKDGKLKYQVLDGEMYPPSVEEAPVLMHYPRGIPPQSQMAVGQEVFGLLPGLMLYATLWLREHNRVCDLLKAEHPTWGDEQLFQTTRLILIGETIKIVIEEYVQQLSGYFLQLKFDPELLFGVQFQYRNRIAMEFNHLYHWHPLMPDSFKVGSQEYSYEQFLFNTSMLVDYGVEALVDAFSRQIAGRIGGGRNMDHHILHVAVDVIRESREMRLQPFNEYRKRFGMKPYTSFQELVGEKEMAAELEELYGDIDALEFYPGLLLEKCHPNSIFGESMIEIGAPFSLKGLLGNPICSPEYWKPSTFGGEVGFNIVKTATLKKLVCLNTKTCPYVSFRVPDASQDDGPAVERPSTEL

COX-2 = biological target: T1, COX-2 (Homo sapiens, UniProt P35354); assay: COX-2 activity; assay type: biochemical; conditions: concentrations up to 10 µM
T1 sequence (P35354 18-604): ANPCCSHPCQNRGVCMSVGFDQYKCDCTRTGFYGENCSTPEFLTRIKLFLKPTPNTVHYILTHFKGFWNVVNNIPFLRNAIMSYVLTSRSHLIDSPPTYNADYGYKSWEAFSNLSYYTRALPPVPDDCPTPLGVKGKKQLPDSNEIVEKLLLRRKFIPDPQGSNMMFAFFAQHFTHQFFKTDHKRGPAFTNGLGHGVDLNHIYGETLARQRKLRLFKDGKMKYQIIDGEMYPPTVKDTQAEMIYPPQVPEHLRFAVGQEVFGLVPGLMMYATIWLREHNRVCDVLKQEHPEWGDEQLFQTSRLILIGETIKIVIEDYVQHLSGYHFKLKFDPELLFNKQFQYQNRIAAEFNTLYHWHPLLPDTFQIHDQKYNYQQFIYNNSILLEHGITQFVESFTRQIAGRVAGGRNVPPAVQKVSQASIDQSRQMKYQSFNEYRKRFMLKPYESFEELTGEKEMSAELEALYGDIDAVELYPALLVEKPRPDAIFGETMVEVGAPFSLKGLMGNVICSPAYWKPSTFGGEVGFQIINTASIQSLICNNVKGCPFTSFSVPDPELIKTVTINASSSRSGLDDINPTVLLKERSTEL

mPGES = mPGES activity; assay type: biochemical; conditions: concentrations up to 10 µM
[2] = system: leukotriene mediated peritonitis; assay: Zymosan-induced peritonitis model in mice; assay type: in vivo, CD1 male mice; conditions: intraperitoneal, 30 min prior to zymosan
Protocol: Compound I-12 was evaluated in vivo in a peritonitis model in mice. The experimental protocols were approved by the Animal Care Committee of the University of Naples Federico II, in compliance with Italian regulations on protection of animals used for experimental and other scientific purpose (Ministerial Decree 116/92) as well as with the European Economic Community regulations (Official Journal of E.C. L 358/1 12/18/1986); protocol number: 2014/0018760 27th February 2014. CD1 male mice with an age of six to eight weeks were investigated. The leukotriene mediated peritonitis is induced by injection of 1 mg zymosan in 50 µl saline solution. 30 min prior to induction, the candidate compound was applied as intraperitoneal injection in different concentrations as well as DMSO as negative control and positive controls (MK886, zileuton). Results are given in Table 3, wherein […] and LTB 4 levels are measured as well as vascular permeability (VP) and the cell recruitment in the peritoneal cavity (Cell Rec). Table 3: Results from an in vivo study with a mouse peritonitis model
In Table 3, values in percent indicate the percent inhibition in respect to the vehicle control. Statistical significance is determined via ANOVA Bonferroni, wherein * indicates p<0.05; ** indicates p<0.01; *** indicates p<0.001 vs. vehicle. N indicates the number of investigated mice.

HEK cells with FLAP = assay: 5-LOX product formation in HEK cells that express FLAP

## Cc1cc(OCc2nc3ccccc3s2)ccc1NC(=O)Nc1ccc(Cl)c(Cl)c1 [Compound I-12, N-[4-(2-benzothiazolylmethoxy)-2-methylphenyl]-N'-(3,4-dichlorophenyl)-urea]
[1]; male PMNL cells, Exogenous AA 3 µM, read-out: IC50 values for 5-LOX product formation
  IC50: 380 nM
[1]; male PMNL cells, Exogenous AA 10 µM, read-out: IC50 values for 5-LOX product formation
  IC50: 1600 nM
[1]; male PMNL cells, Exogenous AA 30 µM, read-out: IC50 values for 5-LOX product formation
  IC50: 2100 nM
[1]; male PMNL cells, Exogenous AA 60 µM, read-out: IC50 values for 5-LOX product formation
  IC50: 9100 nM
[1]; read-out: Effect on 5-LOX product formation in PMNL, IC50
  IC50: 240 nM
12-LOX
  product formation of 12-LOX: did not inhibit
15-LOX; 10 µM AA
  product formation of 15-LOX (15-HETE): increase of the product formation
15-LOX; exogenous AA 10, 30 or 60 µM
  product formation of 15-LOX: did not inhibit
COX-1
  COX-1 activity: not affected
COX-2
  COX-2 activity: not affected
mPGES
  mPGES: not affected
[2]; 1 mg
  Cell Rec (cell recruitment in the peritoneal cavity): 5.93±0.321 10^6/ml
  Cell Rec, percent inhibition in respect to the vehicle control: 22%
  LTB4: 280 ± 42.8 pg/mL
  LTB4, percent inhibition in respect to the vehicle control: 59%**
  LTC4: 26.0 ± 9.47 ng/mL
  LTC4, percent inhibition in respect to the vehicle control: 70%***
[2]; 3 mg
  Cell Rec (cell recruitment in the peritoneal cavity): 4.4±0.509 10^6/ml
  Cell Rec, percent inhibition in respect to the vehicle control: 42%***
  LTB4: 345 ± 69.2 pg/mL
  LTB4, percent inhibition in respect to the vehicle control: 50%*
  LTC4: 30.5 ± 10.3 ng/mL
  LTC4, percent inhibition in respect to the vehicle control: 66%***
[2]; 10 mg
  Cell Rec (cell recruitment in the peritoneal cavity): 3.36±0.439 10^6/ml
  Cell Rec, percent inhibition in respect to the vehicle control: 56%***
  LTB4: 193 ± 34.4 pg/mL
  LTB4, percent inhibition in respect to the vehicle control: 72%***
  LTC4: 25.8 ± 2.66 ng/mL
  LTC4, percent inhibition in respect to the vehicle control: 70%***
  VP (vascular permeability): 0.347±0.09 abs 610 nm
  VP, percent inhibition in respect to the vehicle control: 38%
HEK cells without FLAP
  effect on 5-LOX product formation: nearly no effect
HEK cells with FLAP
  effect on 5-LOX product formation: inhibits the product formation
